Reference: BindingDB's records for doi:10.1016/j.chembiol.2016.10.011 (H. Lee Moffitt Cancer Center & Research Institute, 2016)

Tests used:
[1] = target: T1, GDH/6PGL endoplasmic bifunctional protein (Homo sapiens, UniProt O95479); experiment: H6PD Activity Assay
T1 sequence (O95479 whole entry): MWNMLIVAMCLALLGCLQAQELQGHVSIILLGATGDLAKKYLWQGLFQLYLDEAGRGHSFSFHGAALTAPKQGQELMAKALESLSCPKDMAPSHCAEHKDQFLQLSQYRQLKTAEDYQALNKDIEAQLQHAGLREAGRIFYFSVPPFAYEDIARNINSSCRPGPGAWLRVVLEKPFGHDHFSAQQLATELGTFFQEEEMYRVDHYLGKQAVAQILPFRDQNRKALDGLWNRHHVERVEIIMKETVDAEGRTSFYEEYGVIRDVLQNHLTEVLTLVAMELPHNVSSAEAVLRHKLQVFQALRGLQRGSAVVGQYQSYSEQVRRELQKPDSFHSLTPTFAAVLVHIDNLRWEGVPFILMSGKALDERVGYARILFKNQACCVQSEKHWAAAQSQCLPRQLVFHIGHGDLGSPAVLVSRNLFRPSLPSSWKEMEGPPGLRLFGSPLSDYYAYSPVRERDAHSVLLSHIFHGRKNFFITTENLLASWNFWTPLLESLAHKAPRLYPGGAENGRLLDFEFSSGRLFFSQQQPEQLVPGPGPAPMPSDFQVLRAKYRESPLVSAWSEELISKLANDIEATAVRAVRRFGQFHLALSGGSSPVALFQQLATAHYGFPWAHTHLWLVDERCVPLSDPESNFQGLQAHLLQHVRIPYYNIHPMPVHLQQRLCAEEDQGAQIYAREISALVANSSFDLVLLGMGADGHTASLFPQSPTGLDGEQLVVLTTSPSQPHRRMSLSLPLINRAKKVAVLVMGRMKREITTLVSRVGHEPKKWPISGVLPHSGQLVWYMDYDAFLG
Description: HEK293 H6PD-OE and HEK293 pellets were lysed and the lysate was quantified with the Bradford protein assay. Reaction mix containing galactose-6-phosphate (Gal6P) was combined with increasing concentrations of PARPi or DMSO. As an additional control, reaction mix without substrate was combined with HEK293 H6PD-OE lysate. Lysate from HEK293 or HEK293 H6PD-OE was added to each well to start the reactions. The absorbance at 340 nm (NADPH) was measured for 90 min at 10 min intervals. The 60 min data, which were within the linear range, was used for analysis. Background absorbance was subtracted and the H6PD activity of theHEK293 H6PD-OE lysates treated with PARPi was normalized to the DMSO control.

[2] = target: Poly [ADP-ribose] polymerase 1 (Homo sapiens, UniProt P09874); experiment: In Vitro PARP1 Activity Assay
Poly [ADP-ribose] polymerase 1, sequence (P09874 whole entry): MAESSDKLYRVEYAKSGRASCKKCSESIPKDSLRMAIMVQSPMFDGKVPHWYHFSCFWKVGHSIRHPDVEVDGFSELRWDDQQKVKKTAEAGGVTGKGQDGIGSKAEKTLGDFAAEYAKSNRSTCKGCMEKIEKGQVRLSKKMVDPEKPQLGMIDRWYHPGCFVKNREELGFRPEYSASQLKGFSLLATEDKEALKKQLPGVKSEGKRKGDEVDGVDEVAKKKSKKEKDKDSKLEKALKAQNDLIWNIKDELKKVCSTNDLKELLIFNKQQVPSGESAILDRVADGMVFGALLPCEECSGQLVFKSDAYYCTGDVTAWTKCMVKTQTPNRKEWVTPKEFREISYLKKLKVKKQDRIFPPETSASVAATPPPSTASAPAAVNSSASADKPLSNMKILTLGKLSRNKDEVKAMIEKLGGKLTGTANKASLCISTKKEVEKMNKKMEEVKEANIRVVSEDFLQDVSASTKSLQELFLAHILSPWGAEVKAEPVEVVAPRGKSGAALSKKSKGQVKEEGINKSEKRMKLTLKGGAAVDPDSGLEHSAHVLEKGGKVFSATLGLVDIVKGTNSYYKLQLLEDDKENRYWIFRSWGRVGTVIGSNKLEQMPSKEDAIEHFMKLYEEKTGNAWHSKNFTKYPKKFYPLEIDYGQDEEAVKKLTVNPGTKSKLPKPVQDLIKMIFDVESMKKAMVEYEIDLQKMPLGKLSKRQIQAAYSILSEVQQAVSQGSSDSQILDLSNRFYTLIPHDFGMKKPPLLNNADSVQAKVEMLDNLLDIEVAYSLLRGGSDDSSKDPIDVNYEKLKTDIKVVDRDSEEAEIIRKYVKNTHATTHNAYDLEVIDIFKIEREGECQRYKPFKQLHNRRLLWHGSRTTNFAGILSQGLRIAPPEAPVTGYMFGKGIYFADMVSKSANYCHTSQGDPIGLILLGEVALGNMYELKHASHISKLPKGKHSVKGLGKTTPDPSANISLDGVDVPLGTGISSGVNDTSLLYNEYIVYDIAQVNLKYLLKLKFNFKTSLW
Description: Inhibition of PARP1 was assessed using the Universal Chemiluminescent PARPKit. Luminescence readings were normalized to controls and fit to a sigmoidaldose-response curve using GraphPad Prism 6 to determine IC50 values.

Row | SMILES | IC50 [1] | IC50 [2]
1 | CNCc1ccc(-c2[nH]c3cc(F)cc4c3c2CCNC4=O)cc1 [AG-014699] | 18000 nM | 
2 | NCCCN1CCC[C@@H](c2ccc(-n3cc4cccc(C(N)=O)c4n3)cc2)C1 [c-Niraparib] |  | 48.4 nM
3 | NCCCC(=O)N1CCN(C(=O)c2cc(Cc3n[nH]c(=O)c4ccccc34)ccc2F)CC1 [c-Olaparib] |  | 5.9 nM

The next lines start with the values.

Row | IC50 [1] | IC50 [2] | SMILES
4 |  | 4.4 nM | CN(CCCN)Cc1ccc(-c2[nH]c3cc(F)cc4c3c2CCNC4=O)cc1 [c-Rucaparib]
5 |  | 8.4 nM | C[C@]1(c2nc3c(C(N)=O)cccc3[nH]2)CCCN1CCCN [c-Veliparib]
